Values quoted from earlier work, collected in US10047075B2, “Pyridines and pyrimidines and use thereof” (Purdue Pharma L.P., priority 2014, dated 2018).

How the values were obtained:
Settings in all cases: read-out: TTX IC50; cited from earlier work
Nav1.9 = Nav1.9 (Homo sapiens, UniProt Q9UI33)
Nav1.8 = Nav1.8 (Homo sapiens, UniProt Q9Y5Y9)
Nav1.3 = Nav1.3 (Homo sapiens, UniProt Q9NY46)
Nav1.1 = Nav1.1 (Homo sapiens, UniProt P35498)
Nav1.6 = Nav1.6 (Homo sapiens, UniProt Q9UQD0)
Nav1.2 = Nav1.2 (Homo sapiens, UniProt Q99250)

Chain of Nav1.6 (Q9UQD0 whole entry, looked up): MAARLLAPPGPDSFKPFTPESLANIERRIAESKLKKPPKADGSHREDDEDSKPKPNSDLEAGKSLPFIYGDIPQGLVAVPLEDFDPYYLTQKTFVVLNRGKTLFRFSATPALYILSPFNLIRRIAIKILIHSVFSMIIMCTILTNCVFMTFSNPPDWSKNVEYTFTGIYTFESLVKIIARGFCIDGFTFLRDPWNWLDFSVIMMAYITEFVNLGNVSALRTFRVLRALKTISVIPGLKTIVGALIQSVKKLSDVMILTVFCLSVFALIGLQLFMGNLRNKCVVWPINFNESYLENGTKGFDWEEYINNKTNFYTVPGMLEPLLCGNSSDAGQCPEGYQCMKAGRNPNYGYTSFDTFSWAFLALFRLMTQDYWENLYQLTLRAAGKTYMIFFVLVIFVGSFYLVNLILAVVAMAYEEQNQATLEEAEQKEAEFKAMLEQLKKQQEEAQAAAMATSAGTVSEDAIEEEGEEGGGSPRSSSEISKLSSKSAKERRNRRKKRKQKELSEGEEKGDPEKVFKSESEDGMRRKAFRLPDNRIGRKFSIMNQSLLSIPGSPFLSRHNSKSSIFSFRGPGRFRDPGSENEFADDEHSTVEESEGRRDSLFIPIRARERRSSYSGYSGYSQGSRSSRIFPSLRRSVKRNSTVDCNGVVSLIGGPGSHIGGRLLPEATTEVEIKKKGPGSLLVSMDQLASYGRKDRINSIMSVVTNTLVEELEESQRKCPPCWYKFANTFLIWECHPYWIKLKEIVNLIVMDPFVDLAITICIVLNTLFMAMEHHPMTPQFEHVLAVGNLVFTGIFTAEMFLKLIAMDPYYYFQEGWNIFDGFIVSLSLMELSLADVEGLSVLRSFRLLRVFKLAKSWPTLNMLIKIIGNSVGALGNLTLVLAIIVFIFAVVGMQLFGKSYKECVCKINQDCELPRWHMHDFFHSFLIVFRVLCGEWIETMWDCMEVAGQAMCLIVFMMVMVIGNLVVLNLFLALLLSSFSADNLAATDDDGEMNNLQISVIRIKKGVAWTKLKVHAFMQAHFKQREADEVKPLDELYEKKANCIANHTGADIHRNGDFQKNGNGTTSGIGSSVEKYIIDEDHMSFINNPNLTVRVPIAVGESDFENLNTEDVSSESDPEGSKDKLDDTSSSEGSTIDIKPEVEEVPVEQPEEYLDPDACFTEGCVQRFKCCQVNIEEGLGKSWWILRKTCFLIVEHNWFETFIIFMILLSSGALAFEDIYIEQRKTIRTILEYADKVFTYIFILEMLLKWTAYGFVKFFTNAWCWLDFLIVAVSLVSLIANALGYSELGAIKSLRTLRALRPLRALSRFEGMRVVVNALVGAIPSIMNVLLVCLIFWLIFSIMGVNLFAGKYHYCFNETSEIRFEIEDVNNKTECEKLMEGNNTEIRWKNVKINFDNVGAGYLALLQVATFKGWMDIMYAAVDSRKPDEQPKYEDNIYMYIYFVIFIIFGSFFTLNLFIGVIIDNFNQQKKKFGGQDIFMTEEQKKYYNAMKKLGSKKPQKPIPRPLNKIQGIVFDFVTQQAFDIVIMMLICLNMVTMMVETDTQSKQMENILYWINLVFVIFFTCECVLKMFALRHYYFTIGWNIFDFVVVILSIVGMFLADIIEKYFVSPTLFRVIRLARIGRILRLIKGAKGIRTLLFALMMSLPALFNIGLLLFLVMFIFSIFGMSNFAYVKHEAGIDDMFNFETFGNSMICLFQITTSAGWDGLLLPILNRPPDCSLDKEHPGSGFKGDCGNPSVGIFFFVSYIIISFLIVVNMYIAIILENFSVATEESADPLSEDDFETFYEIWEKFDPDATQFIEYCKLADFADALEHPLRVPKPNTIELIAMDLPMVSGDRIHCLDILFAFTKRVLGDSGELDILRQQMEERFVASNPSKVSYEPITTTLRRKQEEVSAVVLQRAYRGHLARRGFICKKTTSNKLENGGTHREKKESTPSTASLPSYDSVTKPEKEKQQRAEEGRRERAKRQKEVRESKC
Chain of Nav1.3 (Q9NY46 whole entry, looked up): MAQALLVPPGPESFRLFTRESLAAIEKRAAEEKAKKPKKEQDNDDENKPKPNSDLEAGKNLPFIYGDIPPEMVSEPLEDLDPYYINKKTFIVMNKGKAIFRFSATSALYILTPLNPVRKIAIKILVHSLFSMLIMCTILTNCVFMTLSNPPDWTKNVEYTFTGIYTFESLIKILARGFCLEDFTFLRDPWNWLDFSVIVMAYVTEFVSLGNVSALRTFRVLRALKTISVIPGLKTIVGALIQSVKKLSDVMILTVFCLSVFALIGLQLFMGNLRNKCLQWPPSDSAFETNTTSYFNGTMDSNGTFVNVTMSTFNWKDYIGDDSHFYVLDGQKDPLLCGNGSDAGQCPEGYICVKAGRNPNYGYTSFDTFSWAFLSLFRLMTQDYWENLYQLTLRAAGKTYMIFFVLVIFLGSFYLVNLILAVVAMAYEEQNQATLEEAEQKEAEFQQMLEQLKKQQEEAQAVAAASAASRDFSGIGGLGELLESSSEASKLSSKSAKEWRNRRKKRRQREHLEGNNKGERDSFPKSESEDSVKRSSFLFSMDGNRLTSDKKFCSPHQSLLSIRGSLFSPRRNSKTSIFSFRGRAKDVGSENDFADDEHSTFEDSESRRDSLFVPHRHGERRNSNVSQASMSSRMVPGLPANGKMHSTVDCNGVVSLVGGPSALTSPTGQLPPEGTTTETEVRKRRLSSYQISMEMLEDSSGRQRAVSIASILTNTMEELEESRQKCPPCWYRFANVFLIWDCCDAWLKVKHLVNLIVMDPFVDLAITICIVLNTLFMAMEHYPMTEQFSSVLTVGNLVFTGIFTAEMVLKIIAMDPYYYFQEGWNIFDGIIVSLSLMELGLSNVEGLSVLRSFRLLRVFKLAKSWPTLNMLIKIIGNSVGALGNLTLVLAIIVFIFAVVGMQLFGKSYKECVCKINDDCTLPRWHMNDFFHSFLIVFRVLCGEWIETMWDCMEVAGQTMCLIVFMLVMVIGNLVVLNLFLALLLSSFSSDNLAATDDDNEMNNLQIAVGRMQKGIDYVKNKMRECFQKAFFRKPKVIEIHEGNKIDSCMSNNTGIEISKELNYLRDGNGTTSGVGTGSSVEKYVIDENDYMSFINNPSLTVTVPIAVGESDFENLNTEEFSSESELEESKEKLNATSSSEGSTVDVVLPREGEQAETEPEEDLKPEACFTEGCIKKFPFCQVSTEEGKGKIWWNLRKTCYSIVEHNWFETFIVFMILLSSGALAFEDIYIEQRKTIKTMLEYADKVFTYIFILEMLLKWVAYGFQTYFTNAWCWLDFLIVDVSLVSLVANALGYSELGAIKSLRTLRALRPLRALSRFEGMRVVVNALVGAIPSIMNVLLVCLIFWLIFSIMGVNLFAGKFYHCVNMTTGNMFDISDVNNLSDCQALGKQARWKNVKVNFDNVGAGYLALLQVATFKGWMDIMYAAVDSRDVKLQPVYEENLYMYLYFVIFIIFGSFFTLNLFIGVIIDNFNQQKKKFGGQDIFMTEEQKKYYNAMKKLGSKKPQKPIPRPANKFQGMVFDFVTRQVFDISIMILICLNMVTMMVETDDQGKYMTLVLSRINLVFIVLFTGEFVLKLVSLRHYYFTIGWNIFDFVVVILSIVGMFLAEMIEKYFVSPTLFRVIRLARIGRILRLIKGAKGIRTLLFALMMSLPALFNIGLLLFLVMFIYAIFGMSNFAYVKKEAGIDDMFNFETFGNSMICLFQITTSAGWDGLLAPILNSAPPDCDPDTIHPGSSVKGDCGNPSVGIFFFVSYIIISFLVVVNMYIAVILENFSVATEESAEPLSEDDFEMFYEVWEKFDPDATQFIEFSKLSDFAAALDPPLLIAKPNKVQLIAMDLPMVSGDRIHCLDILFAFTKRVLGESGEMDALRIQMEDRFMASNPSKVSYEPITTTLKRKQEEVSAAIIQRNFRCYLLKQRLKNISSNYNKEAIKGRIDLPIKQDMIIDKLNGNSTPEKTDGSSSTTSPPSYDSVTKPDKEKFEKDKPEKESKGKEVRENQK

Compound: NC1=N[C@H](O)[C@H]2[C@H]3O[C@]4(O)O[C@@H]([C@@H](O)[C@@]2(N1)[C@@H]4O)[C@]3(O)CO [TTX, tetrodotoxin]
- IC50 (Nav1.9): 1000 nM
- IC50 (Nav1.8): 50000 nM
- IC50 (Nav1.3): 15 nM
- IC50 (Nav1.1): 10 nM
- IC50 (Nav1.6): 6 nM
- IC50 (Nav1.2): 10 nM
